Laboratory results published in patent publication US9789101B2, “Methods and compositions for treating microbial infection using pyrroloquinone” (HELPERBY THERAPEUTICS LIMITED, priority 2010, dated 2017).

How the values were obtained:
Assay type in all cases: cell-based, Staphylococcus aureus (Oxford)
[1] = system: log phase Staphylococcus aureus; assay: Chequerboard analysis of HT00800059 with HT230 or HT281 against log phase Staphylococcus aureus; details: for optical density reading at 405 nm: HT00800059 μg/ml: 1024,512,256,128,64,32,16,0, 24 hours; for MIC: Staphylococcus aureus, summary list, read-out: alone MIC
Method: (§1) Staphylococcus aureus (Oxford); Gram positive; Reference strain.
(§2) Log phase growth of methicilin sensitive Staphylococcus aureus (MSSA) was carried out as follows: • Bacteria were grown in 10 ml of nutrient broth (No. 2, (Oxoid)) overnight at 37° C. with continuous shaking at 120 rpm. The overnight cultures were diluted 1000× with iso-sensitest broth. The cultures were incubated at 37° C. with shaking for 1-2 hours to reach log CFU 6. Viability of the bacteria was estimated by colony forming unit (CFU) counts. From serial 10-fold dilutions of the experimental cultures, 100 μl samples were added to triplicate plates of nutrient agar plates (Oxoid) or blood agar plates (Oxoid). CFUs were counted after incubation of the plates at 37° C. for 24 hours.
(§3) Bacterial cultures: 10 μl of overnight cultures was added to 10 ml of fresh iso-sensitest broth to make the inoculation to 10^6 CFU/ml. 290 μl of the cell suspension was added to each well of the 96 well plate, which was incubated at 37° C. for 24 hours. 300 μl of iso-sensitest broth without bacterial cells were added to wells of the plate as a no bacterial control.
(§4) MIC determination: The optical density of the bacterial cells was read at 405 nm using a plate reader (Bio TEK). The MIC concentration was determined as the lowest concentration of drug which inhibits the bacterial growth.
HT230 was dissolved in DMSO to the stock concentration of 10 mg/ml.
HT281 was dissolved in DMSO to the stock concentration of 10 mg/ml.
(§5) HT00800059 was dissolved in H2O to the stock solution 30.07 mg/ml.
HT230 or HT281 (10 mg/ml) was firstly diluted to 0.96 mg/ml, then a serial of 2 fold dilution was carried out.
This was followed by the addition of 280 μl of log phase culture at 10^6 CFU/ml to make the final concentrations of each drug as shown.
In the above table, values in bold text are for HT00800059. Values in plain text are for HT230 or HT281. The numbers shown in each well are μg/ml.
Incubation of the compounds with the bacterial suspension was carried out for 24 hours. The kill effects of the drug combination were measured by optical density reading at 405 nm with a plate reader (Bio TEK).
(§6) The fractional inhibitory concentration (FIC) index was carried out as follows: (MIC of drug A, tested in combination)/(MIC of drug A, tested alone)+(MIC of drug B, tested in combination)/(MIC of drug B, tested alone). The interaction was defined as synergistic if the FIC index was <1, additive if the FIC index was =1 and antagonistic if the FIC index was >1.

[2] = system: stationary phase Staphylococcus aureus; assay: In vitro efficacy test against stationary phase Staphylococcus aureus (CFU counts); details: CFU counts over 8 hours
Method: as §1
Stationary phase growth of methicilin sensitive Staphylococcus aureus (MSSA) was carried out as follows:
Subculture of the bacterial strains on agar plates: Overnight S. aureus bacterial cultures were stored at −70° C. with 20% glycerol (cryoprotectant). A loopful of the frozen cells was streaked on a blood agar plate which was incubated at 37° C. overnight (or longer) as culture plate A. A single colony of each strain from the culture plate A was streaked on the blood agar plate which was incubated at 37° C. overnight (or longer) as culture plate B. The culture plate B was stored at 4° C. for a week and served as the initial inoculation plate.
Bacterial growth in broth culture: A single colony from culture plate B was inoculated in 10 ml of nutrient broth (No. 2, (Oxoid)), which was incubated overnight at 37° C. with continuous shaking at 120 rpm. 200 μl of the overnight culture was added into a 500 ml bottle containing 100 ml of nutrient broth. The 100 ml culture was incubated at 37° C. with continuous shaking for 6 to 7 days. Viability of the cultures is estimated by colony forming unit (CFU) counts at 2 hour intervals for the first 24 hours and 12 to 24 hours afterwards.
Colony Forming Unit (CFU) counts were performed as follows: From serial 10-fold dilutions of the cultures, 100 μl samples were added to one third of blood agar plates (Oxoid) in triplicate. CFUs were counted using an aCoLyte colony counter (Synbiosis) after incubation of the plates at 37° C. for 24 hours or longer.
7 day old stationary phase cultures were used. The stationary phase cultures were diluted to obtain CFU counts in the cell suspension of 10^6 to 10^7 CFU/ml. The cell suspension was used to test drug sensitivity.
(§7) HT61 was dissolved in DMSO to the stock concentration of 10 mg/ml.
HT00800059 was dissolved in H2O to the stock solution 10 mg/ml
The drugs were first diluted as follows: • 7.2 μl of HT61 at 10 mg/ml was added into 292.8 μl of H2O followed by diluting 2 fold, 3 times. • 57.6 μl of HT00800059 at 10 mg/ml was added into 242.4 μl of H2O followed by diluting 2 fold, 2 times. • 10 μl of HT00800059 from each dilution was added into the wells of a 96 well plate followed by the addition of 290 μl of bacterial cell suspension to make the final concentrations of HT00800059 at 64, 32 and 0 μg/ml. • […]
In combination of two drugs: 10 μl of HT61 from each dilution was added into the wells of a 96 well plate followed by the addition of 10 μl of HT00800059 from each dilution. […]

[3] = system: log phase Staphylococcus aureus; assay: Chequerboard analysis of HT00800059 and HT61 against log phase Staphylococcus aureus
Method: as §1, §2, §3, §4, §7, §5
The drugs were first diluted as follows: • 28.8 μl of HT61 at 10 mg/ml was added into 271.2 μl of H2O followed by diluting 2 fold for 6 times.
Both drugs were mixed as following pattern: 10 μl of HT00800059 from each dilution was added into the wells of a 96 well plate from top to bottom and 10 μl of HT61 from each dilution was added to the same 96 well plate from left to right. After addition of 280 μl log phase cell suspension, the final concentrations of drugs for each well in the 96 well plate are shown in the table below.
Incubation of the compounds with the bacterial suspension was carried out for 24 hours. The kill effect of the drug combination and signal drug MIC was measured by optical density reading at 405 nm with a plate reader (Bio TEK). The MIC concentration was determined as the lowest concentration of drug which inhibits the bacterial growth.
as §6

Structure (SMILES): Cc1cc(N2CCC(Cc3ccccc3)C2)c2cc(NC(=O)c3ccccc3)ccc2n1 (centres unmarked) [HT281, N-[4-(3-benzylpyrrolidin-1-yl)-2-methylquinolin-6-yl]benzamide]
- optical density reading at 405 nm ([1]; HT281 0.125 μg/ml): 1.334
- optical density reading at 405 nm ([1]; HT281 0.25 μg/ml): 1.281
- optical density reading at 405 nm ([1]; HT281 0.5 μg/ml): 1.378
- optical density reading at 405 nm ([1]; HT281 0.625 μg/ml): 1.256
- optical density reading at 405 nm ([1]; HT281 1 μg/ml): 1.263
- optical density reading at 405 nm ([1]; HT281 2 μg/ml): 1.157
- optical density reading at 405 nm ([1]; HT281 4 μg/ml): 1.080
- optical density reading at 405 nm ([1]; HT281 8 μg/ml): 0.361
- optical density reading at 405 nm ([1]; HT281 16 μg/ml): 0.364
- optical density reading at 405 nm ([1]; HT281 32 μg/ml): 0.396
- optical density reading at 405 nm ([1]; HT281 64 μg/ml): 0.558
- MIC after combination ([1]; HT281/HT00800059 chequerboard): 4 µg/mL
- MIC before combination ([1]; HT281/HT00800059 chequerboard): 8 µg/mL
- MIC [1]: 8 µg/mL

Structure (SMILES): Cc1nc2ccc(Oc3ccccc3)cc2c2c1CCN2CCc1ccccc1 [HT61, 4-methyl-1-(2-phenylethyl)-8-phenoxy-2,3-dihydro-1H-pyrrolo[3,2-c]-quinoline]
- activity against stationary phase S. aureus ([2]; 8 μg/ml): low activity
- activity against stationary phase S. aureus ([2]; 4 and 2 μg/ml): no observed activity
- MIC ([3]; Staphylococcus aureus, drug alone, Plate 1, read-out: MIC): 8 µg/mL
- MIC ([3]; Staphylococcus aureus, read-out: alone MIC): 16 µg/mL
- MIC ([3]; Staphylococcus aureus, with HT00800059 128 μg/ml, Plate 1, read-out: MIC of HT61 + HT00800059): 4 µg/mL
- MIC ([3]; drug alone, Plate 2): 8 µg/mL
- MIC of HT61 + HT00800059 ([3]; with HT00800059 128 μg/ml, Plate 2): 4 µg/mL
- HT61 MIC in combination ([3]; with HT00800059 at 128 μg/ml): 8 µg/mL

Structure (SMILES): Cc1cc(N2CCC(Cc3ccccc3)C2)c2cc(Oc3ccccc3)ccc2n1 (centres unmarked) [HT230, 4-(3-benzylpyrrolidin-1-yl)-2-methyl-6-phenoxyquinoline]
- optical density reading at 405 nm ([1]; HT230 0.03125 μg/ml): 1.237
- optical density reading at 405 nm ([1]; HT230 0.0625 μg/ml): 1.312
- optical density reading at 405 nm ([1]; HT230 0.125 μg/ml): 1.317
- optical density reading at 405 nm ([1]; HT230 0.25 μg/ml): 1.401
- optical density reading at 405 nm ([1]; HT230 0.5 μg/ml): 1.135
- optical density reading at 405 nm ([1]; HT230 1 μg/ml): 1.160
- optical density reading at 405 nm ([1]; HT230 2 μg/ml): 1.190
- optical density reading at 405 nm ([1]; HT230 4 μg/ml): 0.365
- optical density reading at 405 nm ([1]; HT230 8 μg/ml): 0.363
- optical density reading at 405 nm ([1]; HT230 16 μg/ml): 0.357
- optical density reading at 405 nm ([1]; HT230 32 μg/ml): 0.406
- MIC after combination ([1]; HT230/HT00800059 chequerboard): 1 µg/mL
- MIC before combination ([1]; HT230/HT00800059 chequerboard): 4 µg/mL
- MIC [1]: 4 µg/mL
- HT230 MIC in combination ([1]; with HT00800059 at 128 μg/ml): 4 µg/mL
- HT230 MIC in combination ([1]; with HT00800059 at 256 μg/ml): 1 µg/mL
